From the supplement of paper PMC10307832

How the values were obtained:
Experiment in all cases: relative viability (nuclei count vs DMSO), 5 days (fraction); higher = more cells survive
[1] = test system: BEN
In short: (§1)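 Lung cancer cell lines were pin-tool dosed in 1536-well plates on the day after seeding, with either a lone drug or a fixed anchor-drug dose plus five library-drug doses (not always all listed) in √10 steps. Nuclei were counted on 4× images after 5 days. Relative viability is the ratio of treated-well to vehicle-well nuclei counts, with each value a median of duplicate plates.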

[2] = test system: ChaGo-K-1
In short: as §1

[3] = test system: HCC-78
In short: as §1

[4] = test system: LC-2-ad
In short: as §1

[5] = test system: LCLC-97TM1
In short: as §1

[6] = test system: LK-2
In short: as §1

[7] = test system: LU99A
In short: as §1

[8] = test system: LXF-289
In short: as §1

[9] = test system: NCI-H1355
In short: as §1

[10] = test system: NCI-H1651
In short: as §1

[11] = test system: NCI-H1666
In short: as §1

[12] = test system: NCI-H1944
In short: as §1

[13] = test system: NCI-H1975
In short: as §1

[14] = test system: NCI-H2087
In short: as §1

[15] = test system: NCI-H358
In short: as §1

[16] = test system: NCI-H596
In short: as §1

[17] = test system: NCI-H650
In short: as §1

[18] = test system: NCI-H661
In short: as §1

[19] = test system: NCI-H838
In short: as §1

[20] = test system: PC-3 [JPC-3]
In short: as §1

[21] = test system: SK-MES-1
In short: as §1

Molecule `Nc1ccn([C@@H]2O[C@H](CO)[C@@H](O)[C@@H]2O)c(=O)n1` [Cytarabine] + CS(=O)(=O)N1CCN(Cc2cc3nc(-c4cccc5[nH]ncc45)nc(N4CCOCC4)c3s2)CC1 [Pictilisib] (partner 1 µM) has a relative viability ([1]; first compound 0.005 µM) of 0.571, a relative viability ([1]; first compound 0.01581 µM) of 0.504 and a relative viability ([1]; first compound 0.05 µM) of 0.413. The relative viability ([1]; first compound 0.1581 µM) was 0.279, the relative viability ([1]; first compound 0.5 µM) was 0.195 and the relative viability ([2]; first compound 0.005 µM) was 0.583. It also gave a relative viability ([2]; first compound 0.01581 µM) of 0.459, a relative viability ([2]; first compound 0.05 µM) of 0.284 and a relative viability ([2]; first compound 0.1581 µM) of 0.365. The relative viability ([2]; first compound 0.5 µM) was 0.401, the relative viability ([3]; first compound 0.005 µM) was 0.234 and the relative viability ([3]; first compound 0.01581 µM) was 0.196. The relative viability ([3]; first compound 0.05 µM) was 0.139, the relative viability ([3]; first compound 0.1581 µM) was 0.141 and the relative viability ([3]; first compound 0.5 µM) was 0.128. It also gave a relative viability ([4]; first compound 0.005 µM) of 0.402, a relative viability ([4]; first compound 0.01581 µM) of 0.419 and a relative viability ([4]; first compound 0.05 µM) of 0.361. It also gave a relative viability ([4]; first compound 0.1581 µM) of 0.212, a relative viability ([4]; first compound 0.5 µM) of 0.16 and a relative viability ([5]; first compound 0.005 µM) of 0.207. The relative viability ([5]; first compound 0.01581 µM) was 0.177, the relative viability ([5]; first compound 0.05 µM) was 0.0754 and the relative viability ([5]; first compound 0.1581 µM) was 0.124. It also gave a relative viability ([5]; first compound 0.5 µM) of 0.108, a relative viability ([6]; first compound 0.005 µM) of 0.531 and a relative viability ([6]; first compound 0.01581 µM) of 0.476. It also gave a relative viability ([6]; first compound 0.05 µM) of 0.426, a relative viability ([6]; first compound 0.1581 µM) of 0.23 and a relative viability ([6]; first compound 0.5 µM) of 0.235. For the same molecule, the relative viability ([7]; first compound 0.005 µM) was 0.372, the relative viability ([7]; first compound 0.01581 µM) was 0.305 and the relative viability ([7]; first compound 0.05 µM) was 0.282. For the same molecule, the relative viability ([7]; first compound 0.1581 µM) was 0.308, the relative viability ([7]; first compound 0.5 µM) was 0.299 and the relative viability ([8]; first compound 0.005 µM) was 0.716. The relative viability ([8]; first compound 0.01581 µM) was 0.752, the relative viability ([8]; first compound 0.05 µM) was 0.679 and the relative viability ([8]; first compound 0.1581 µM) was 0.288. It also gave a relative viability ([8]; first compound 0.5 µM) of 0.304, a relative viability ([9]; first compound 0.005 µM) of 0.398 and a relative viability ([9]; first compound 0.01581 µM) of 0.392. For the same molecule, the relative viability ([9]; first compound 0.05 µM) was 0.205, the relative viability ([9]; first compound 0.1581 µM) was 0.302 and the relative viability ([9]; first compound 0.5 µM) was 0.196. The relative viability ([10]; first compound 0.005 µM) was 0.446, the relative viability ([10]; first compound 0.01581 µM) was 0.522 and the relative viability ([10]; first compound 0.05 µM) was 0.533. It also gave a relative viability ([10]; first compound 0.1581 µM) of 0.17, a relative viability ([10]; first compound 0.5 µM) of 0.165 and a relative viability ([11]; first compound 0.005 µM) of 0.498. The relative viability ([11]; first compound 0.01581 µM) was 0.345, the relative viability ([11]; first compound 0.05 µM) was 0.381 and the relative viability ([11]; first compound 0.1581 µM) was 0.229. It also gave a relative viability ([11]; first compound 0.5 µM) of 0.205, a relative viability ([12]; first compound 0.005 µM) of 0.29 and a relative viability ([12]; first compound 0.01581 µM) of 0.267. The relative viability ([12]; first compound 0.05 µM) was 0.236, the relative viability ([12]; first compound 0.1581 µM) was 0.201 and the relative viability ([12]; first compound 0.5 µM) was 0.189. For the same molecule, the relative viability ([13]; first compound 0.005 µM) was 0.271, the relative viability ([13]; first compound 0.01581 µM) was 0.281 and the relative viability ([13]; first compound 0.05 µM) was 0.311. The relative viability ([13]; first compound 0.1581 µM) was 0.289, the relative viability ([13]; first compound 0.5 µM) was 0.195 and the relative viability ([14]; first compound 0.005 µM) was 0.804. For the same molecule, the relative viability ([14]; first compound 0.01581 µM) was 0.751, the relative viability ([14]; first compound 0.05 µM) was 0.805 and the relative viability ([14]; first compound 0.1581 µM) was 0.461. The relative viability ([14]; first compound 0.5 µM) was 0.355, the relative viability ([15]; first compound 0.005 µM) was 0.318 and the relative viability ([15]; first compound 0.01581 µM) was 0.288. It also gave a relative viability ([15]; first compound 0.05 µM) of 0.298, a relative viability ([15]; first compound 0.1581 µM) of 0.179 and a relative viability ([15]; first compound 0.5 µM) of 0.155. The relative viability ([16]; first compound 0.005 µM) was 0.432, the relative viability ([16]; first compound 0.01581 µM) was 0.396 and the relative viability ([16]; first compound 0.05 µM) was 0.355. For the same molecule, the relative viability ([16]; first compound 0.1581 µM) was 0.277, the relative viability ([16]; first compound 0.5 µM) was 0.315 and the relative viability ([17]; first compound 0.005 µM) was 0.831. For the same molecule, the relative viability ([17]; first compound 0.01581 µM) was 0.688, the relative viability ([17]; first compound 0.05 µM) was 0.419 and the relative viability ([17]; first compound 0.1581 µM) was 0.224. For the same molecule, the relative viability ([17]; first compound 0.5 µM) was 0.214, the relative viability ([18]; first compound 0.005 µM) was 0.411 and the relative viability ([18]; first compound 0.01581 µM) was 0.323. For the same molecule, the relative viability ([18]; first compound 0.05 µM) was 0.217, the relative viability ([18]; first compound 0.1581 µM) was 0.284 and the relative viability ([18]; first compound 0.5 µM) was 0.222. It also gave a relative viability ([19]; first compound 0.005 µM) of 0.334, a relative viability ([19]; first compound 0.01581 µM) of 0.495 and a relative viability ([19]; first compound 0.05 µM) of 0.435. The relative viability ([19]; first compound 0.1581 µM) was 0.257, the relative viability ([19]; first compound 0.5 µM) was 0.243 and the relative viability ([20]; first compound 0.005 µM) was 0.695. It also gave a relative viability ([20]; first compound 0.01581 µM) of 0.673, a relative viability ([20]; first compound 0.05 µM) of 0.647 and a relative viability ([20]; first compound 0.1581 µM) of 0.448. The relative viability ([20]; first compound 0.5 µM) was 0.479, the relative viability ([21]; first compound 0.005 µM) was 0.333 and the relative viability ([21]; first compound 0.01581 µM) was 0.305. The relative viability ([21]; first compound 0.05 µM) was 0.227, the relative viability ([21]; first compound 0.1581 µM) was 0.194 and the relative viability ([21]; first compound 0.5 µM) was 0.205.
